≈ marks a conversion by molar mass, not a printed value.
What was measured:
[1] = Assessment of solubility (McIlvaine buffers, 24 h shake, UPLC-UV); format: physicochemical; conditions: kinetic from dmso stock
Procedure, shortened: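 Compounds from 10 mM DMSO stocks were shaken for 24 h at room temperature in McIlvaine buffers at pH 2.2, 4.5 and 6.8 (2.5% v/v DMSO final), then filtered. Filtrates were quantified by UPLC-UV at 254 nm against a 50:50 acetonitrile/water reference assumed fully dissolved, as a single determination.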

[2] = molecular target: T1, human soluble guanylate cyclase alpha 1 and beta 1 subunits (sGC) (Homo sapiens, UniProt Q02108+Q02153); assay: sGC cellular activator assay (cGMP, HTRF); format: cell-based; conditions: CHO cells stably expressing human sGC alpha 1/beta 1, preincubated with 40 microM ODQ; cGMP readout; assay run with and without 50% human serum, Table 2 does not say which
T1 construct: expressed in transfected cells; host or cells: Chinese hamster ovary (CHO) cells, stably transfected
T1 sequence (Q02108 1-690): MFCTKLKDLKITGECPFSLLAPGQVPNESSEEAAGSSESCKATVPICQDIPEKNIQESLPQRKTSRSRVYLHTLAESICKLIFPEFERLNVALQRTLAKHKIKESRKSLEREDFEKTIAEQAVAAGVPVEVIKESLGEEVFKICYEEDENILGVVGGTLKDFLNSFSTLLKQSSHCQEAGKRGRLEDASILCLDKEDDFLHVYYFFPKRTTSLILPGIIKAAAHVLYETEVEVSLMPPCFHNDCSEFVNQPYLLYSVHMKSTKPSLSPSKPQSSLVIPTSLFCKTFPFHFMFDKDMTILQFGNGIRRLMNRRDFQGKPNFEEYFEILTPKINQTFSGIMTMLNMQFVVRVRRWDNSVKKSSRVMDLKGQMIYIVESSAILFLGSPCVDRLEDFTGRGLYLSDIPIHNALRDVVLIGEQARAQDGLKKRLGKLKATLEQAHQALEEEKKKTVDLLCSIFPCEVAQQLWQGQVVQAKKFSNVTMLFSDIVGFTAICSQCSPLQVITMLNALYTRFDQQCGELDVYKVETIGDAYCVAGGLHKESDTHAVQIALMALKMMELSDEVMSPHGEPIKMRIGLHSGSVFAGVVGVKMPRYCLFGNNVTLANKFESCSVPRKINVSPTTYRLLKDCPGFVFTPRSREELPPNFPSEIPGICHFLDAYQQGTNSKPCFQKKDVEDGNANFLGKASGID
T1 sequence (Q02153 1-619): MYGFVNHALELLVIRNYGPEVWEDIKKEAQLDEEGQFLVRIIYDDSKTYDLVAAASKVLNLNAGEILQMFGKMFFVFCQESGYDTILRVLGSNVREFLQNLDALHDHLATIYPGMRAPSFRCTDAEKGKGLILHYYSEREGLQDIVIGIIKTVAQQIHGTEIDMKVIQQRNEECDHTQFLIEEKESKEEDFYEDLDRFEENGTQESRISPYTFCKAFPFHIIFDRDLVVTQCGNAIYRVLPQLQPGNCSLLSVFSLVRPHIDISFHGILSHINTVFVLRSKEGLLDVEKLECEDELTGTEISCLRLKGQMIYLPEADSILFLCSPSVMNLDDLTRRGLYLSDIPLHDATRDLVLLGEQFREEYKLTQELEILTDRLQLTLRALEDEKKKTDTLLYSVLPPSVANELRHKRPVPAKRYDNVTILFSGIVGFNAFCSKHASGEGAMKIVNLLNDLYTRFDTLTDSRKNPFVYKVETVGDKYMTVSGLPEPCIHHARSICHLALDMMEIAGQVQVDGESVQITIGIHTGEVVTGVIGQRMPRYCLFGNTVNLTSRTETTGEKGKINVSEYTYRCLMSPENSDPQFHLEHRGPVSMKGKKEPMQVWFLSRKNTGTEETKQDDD
Procedure, shortened: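 Heme-oxidized conditions: ODQ (40 microM, 1 h) pretreatment of CHO cells stably expressing human α1/β1 sGC, in buffer containing 0.1% BSA and IBMX.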

| SMILES | solubility at 24 h ([1]; pH 2.2, aqueous buffer) [µg/mL] | solubility at 24 h ([1]; pH 4.5, aqueous buffer) [µg/mL] | solubility at 24 h ([1]; pH 6.8, aqueous buffer) [µg/mL] | EC50 [2] [nM] |
| --- | --- | --- | --- | --- |
| Cc1cccc(-c2cccc(-n3ncc(C(=O)O)c3OC(C)C)n2)c1OCc1ccc2c(c1)CCN(C1CCOCC1)C2 [Compound 1, 5-isopropoxy-1-(6-{3-methyl-2-[2-(tetrahydro-pyran-4-yl)-1,2,3,4-tetrahydro-isoquinolin-6-ylmethoxy]-phenyl}-pyridin-2-yl)-1H-pyrazole-4-carboxylic acid] | 95 (≈ 163 µM) | 80 (≈ 137 µM) | 87 (≈ 149 µM) | 39 |
| Cc1cccc(-c2cccc(-n3ncc(C(=O)O)c3OC(C)C)n2)c1OCc1ccc2c(c1)CCN(C1CCC(F)(F)CC1)C2 [Compound 2] | 110 (≈ 178 µM) | 83 (≈ 135 µM) | 88 (≈ 143 µM) | 11 |
| COc1c(C(=O)O)cnn1-c1cccc(-c2cccc(C)c2OCc2ccc3c(c2)CCN(C2CCOCC2)C3)n1 [Compound 3] | 96 (≈ 173 µM) | 79 (≈ 142 µM) | 81 (≈ 146 µM) | 29 |
| Cc1cccc(-c2cccc(-n3ncc(C(=O)O)c3OC(C)C)n2)c1OCc1ccc2c(c1)CCN(CC1CC(F)(F)C1)C2 [Compound 4, 1-(6-{2-[2-(3,3-difluoro-cyclobutylmethyl)-1,2,3,4-tetrahydro-isoquinolin-6-ylmethoxy]-3-methyl-phenyl}-pyridin-2-yl)-5-isopropoxy-1H-pyrazole-4-carboxylic acid] | 100 (≈ 166 µM) | 81 (≈ 134 µM) | 83 (≈ 138 µM) | 11 |
| COc1c(C(=O)O)cnn1-c1cccc(-c2cccc(C)c2OCc2ccc3c(c2)CCN(C2CCC(F)(F)CC2)C3)n1 [Compound 5] | 98 (≈ 166 µM) | 76 (≈ 129 µM) | 72 (≈ 122 µM) | 9 |
| CCOc1c(C(=O)O)cnn1-c1cccc(-c2cccc(C)c2OCc2ccc3c(c2)CCN(C2COC2)C3)n1 [Compound 6] | 90 (≈ 166 µM) | 64 (≈ 118 µM) | 81 (≈ 150 µM) | 87 |
| COc1c(C(=O)O)cnn1-c1cccc(-c2cccc(C)c2OCc2ccc3c(c2C)CCN(CC(C)(C)C)C3)n1 [Compound 30] | 100 (≈ 180 µM) | 81 (≈ 146 µM) | 75 (≈ 135 µM) | 10 |
| COc1c(C(=O)O)cnn1-c1cccc(-c2cccc(C)c2OCc2ccc3c(c2C)CCN(C2CCOC2)C3)n1 (stereo not shown) [Compound 31] | 110 (≈ 198 µM) | 89 (≈ 160 µM) | 94 (≈ 169 µM) | 19 |
| CCOc1c(C(=O)O)cnn1-c1cccc(-c2cccc(C)c2OCc2ccc3c(c2)CCN(C(C)C)C3)n1 [Compound 32] | 91 (≈ 173 µM) | 73 (≈ 139 µM) | 78 (≈ 148 µM) | 170 |
| COc1c(C(=O)O)cnn1-c1cccc(-c2cccc(C)c2OCc2ccc3c(c2)CCN(CC(C)(C)O)C3)n1 [Compound 33, 1-(6-{2-[2-(2-hydroxy-2-methyl-propyl)-1,2,3,4-tetrahydro-isoquinolin-6-ylmethoxy]-3-methyl-phenyl}-pyridin-2-yl)-5-methoxy-1H-pyrazole-4-carboxylic acid] | 93 (≈ 171 µM) | 73 (≈ 135 µM) | 75 (≈ 138 µM) | 97 |
| CCOc1c(C(=O)O)cnn1-c1cccc(-c2cccc(C)c2OCc2ccc3c(c2)CCN(CC2(C)COC2)C3)n1 [Compound 34] | 82 (≈ 144 µM) | 65 (≈ 114 µM) | 68 (≈ 120 µM) | 65 |
| CCOc1c(C(=O)O)cnn1-c1cccc(-c2cccc(C)c2OCc2ccc3c(c2)CCN(C2CCOC2)C3)n1 (stereo not shown) [Compound 35] | 93 (≈ 168 µM) | 73 (≈ 132 µM) | 78 (≈ 141 µM) | 29 |
| CCOc1c(C(=O)O)cnn1-c1cccc(-c2cccc(C)c2OCc2ccc3c(c2)CCN(C2CCCOC2)C3)n1 (stereo not shown) [Compound 36] | 91 (≈ 160 µM) | 72 (≈ 127 µM) | 74 (≈ 130 µM) | 27 |
| Cc1cccc(-c2cccc(-n3ncc(C(=O)O)c3OC(C)C)n2)c1OCc1ccc2c(c1)CCN(C(C)C)C2 [Compound 37] | 92 (≈ 170 µM) | 74 (≈ 137 µM) | 78 (≈ 144 µM) | 120 |
| COCC(C)N1CCc2cc(COc3c(C)cccc3-c3cccc(-n4ncc(C(=O)O)c4OC(C)C)n3)ccc2C1 (stereo not shown) [Compound 38] | 110 (≈ 193 µM) | 94 (≈ 165 µM) | 88 (≈ 154 µM) | 66 |
| Cc1cccc(-c2cccc(-n3ncc(C(=O)O)c3OC(C)C)n2)c1OCc1ccc2c(c1)CCN(C1COC1)C2 [Compound 39] | 93 (≈ 168 µM) | 44 (≈ 79.3 µM) | 81 (≈ 146 µM) | 17 |
| Cc1cccc(-c2cccc(-n3ncc(C(=O)O)c3OC(C)C)n2)c1OCc1ccc2c(c1)CCN(CC1(C)COC1)C2 [Compound 40] | 99 (≈ 170 µM) | 81 (≈ 139 µM) | 85 (≈ 146 µM) | 62 |
| Cc1cccc(-c2cccc(-n3ncc(C(=O)O)c3OC(C)C)n2)c1OCc1ccc2c(c1)CCN(C1CCOC1)C2 (stereo not shown) [Compound 41] | 96 (≈ 169 µM) | 75 (≈ 132 µM) | 80 (≈ 141 µM) | 27 |
| Cc1cccc(-c2cccc(-n3ncc(C(=O)O)c3OC(C)C)n2)c1OCc1ccc2c(c1)CCN(C1CCCOC1)C2 (stereo not shown) [Compound 42] | 93 (≈ 160 µM) | 75 (≈ 129 µM) | 78 (≈ 134 µM) | 24 |
| Cc1cccc(-c2cccc(-n3ncc(C(=O)O)c3OC(C)C)n2)c1OCc1ccc2c(c1C)CCN(C(C)C)C2 [Compound 43] | 95 (≈ 171 µM) | 79 (≈ 142 µM) | 82 (≈ 148 µM) | 130 |
| COCC(C)N1CCc2c(ccc(COc3c(C)cccc3-c3cccc(-n4ncc(C(=O)O)c4OC(C)C)n3)c2C)C1 (stereo not shown) [Compound 44] | 100 (≈ 171 µM) | 85 (≈ 145 µM) | 88 (≈ 151 µM) | 44 |
| Cc1cccc(-c2cccc(-n3ncc(C(=O)O)c3OC(C)C)n2)c1OCc1ccc2c(c1C)CCN(C1COC1)C2 [Compound 45] | 82 (≈ 144 µM) | 61 (≈ 107 µM) | 73 (≈ 128 µM) | 26 |

Reference: patent US8906904B2, “Alkoxy pyrazoles as soluble guanylate cyclase activators” (Boehringer Ingelheim International GmbH, priority 2012, dated 2014)
